Holding throughout (assay type): cell-based, human
In one experiment the test system is IL-6. Description: IL-6 ELISA of culture supernatants. Conditions: U266 cells, curcumin (legend b20: 10 mM). How it is done:
Sixty micrograms of cytoplasmic extracts were resolved on 10% SDS-PAGE gel, electrotransferred on a nitrocellulose membrane, and probed for the following: IκBα (FIG. 4A); Bcl-2 (FIG. 4B); Bcl-xL (FIG. 4C) and cyclin D1 (FIG. 4D). The same blots were stripped and reprobed with anti-β-actin antibody to show equal protein loading (lower panel in each figure). FIG. 4E: […] U266, MM.1 or RPMI 8226 cells (1×10^7) were treated with curcumin ([…]) in 5 ml of medium for the indicated times. Supernatants were harvested and concentrated approximately 20×, and IL-6 was quantitated by an IL-6 ELISA kit. Values shown were normalized to 1 ml of un-concentrated supernatants. […] One hundred microliter aliquots were removed, and IL-6 contents were determined by an ELISA kit (Biosource International).
(In general: ELISA stands for enzyme-linked immunosorbent assay.)

The test system of experiment [1] is U266 cells. Description: Flow cytometric cell cycle analysis (propidium iodide). As to conditions: U266, 10 μM curcumin, 24 h. How it is done:
U266 cells (2×10^6 cells/ml) were incubated in the absence or presence of curcumin (10 μM) for the indicated times. The cells were then washed, fixed, stained with propidium iodide, and analyzed for DNA content by flow cytometry. […] After incubation for overnight at −20° C., cells were washed with PBS prior to staining with propidium iodide (PI), and then suspended in staining buffer (PI, […]; Tween-20, 0.5%; RNase, 0.1% in PBS). The cells were analyzed using a FACS Vantage flow cytometer that uses CellQuest acquisition and analysis programs (Becton Dickinson, San Jose, Calif.).

The test system of experiment [2] is U266 cells. Description: Cytotoxic effect of vincristine with or without curcumin (MTT). Conditions: U266, curcumin 10 μM alone, 24 h. How it is done: The antiproliferative effects of curcumin against different multiple myeloma cell lines were determined by the MTT dye uptake method as described earlier (Manna et al., 1998). Briefly, cells (5000/well) were incubated in triplicate in a 96-well plate in the presence or absence of indicated test samples in a final volume of 0.1 ml for 24 h at 37° C. Thereafter, 0.025 ml of MTT solution (5 mg/ml in PBS) was added to each well. After a 2 h incubation at 37 ° C., 0.1 ml of extraction buffer (20% SDS, 50% dimethylformamide) was added. Incubation was continued for overnight at 37 ° C., and then the OD at 590 nm was measured using a 96-well multiscanner autoreader (Dynatech MR 5000), with extraction buffer as blank. Percent cell viability=(OD of the experiment samples/OD of the control)×100.

A further experiment has as its system NF-κB. Description: Immunocytochemistry for NF-κB in bone marrow CD138+ cells from multiple myeloma patients. Conditions: patients #5, #9 and #10, 50 μM curcumin, 2 h. How it is done:
(§1) The cells were fixed on slides by cytospin centrifugation and immuno-stained for NF-κB or STAT3. Red stain indicates specific staining for NF-κB or STAT3, whereas blue stain indicates the relative position of the nuclei in the corresponding view.
(§2) Red stain indicates the specific staining for NF-κB or STAT3 as indicated, whereas blue stain indicates the relative position of the nuclei in the corresponding view.
(§3) Untreated or treated multiple myeloma cells were plated on a poly-L-lysine-coated glass slide by centrifugation using a Cytospin 4 (Thermoshendon, Pittsburg, Pa.), air-dried for 1 h at room temperature, and fixed with cold acetone. After a brief washing in PBS, slides were blocked with 5% normal goat serum for 1 h and then incubated either with rabbit polyclonal anti-human NF-κB p65 antibody (SC-109; dilution, 1:100) or with anti-human STAT3 antibody (SC-482; dilution, 1:100). After overnight incubation, the slides were washed and then incubated with goat anti-rabbit IgG-Alexa 594 (A-11037; dilution, 1:100) for 1 h and counter-stained for nuclei with Hoechst (50 ng/ml) for 5 min. Stained slides were mounted with mounting medium (Sigma Colo.) and analyzed under an epifluorescence microscope (Labophot-2, Nikon, Tokyo, Japan). […]

Another experiment relates to STAT3. Briefly: Immunocytochemistry for STAT3 in bone marrow CD138+ cells from multiple myeloma patients. Conditions: patients #5, #9 and #10, 50 μM curcumin, 2 h (legend b30: 1 h). How it is done: as §1, §2, §3

Each structure is given as a SMILES string.

With `COc1cc(/C=C/C(=O)CC(=O)/C=C/c2ccc(O)c(OC)c2)ccc1O` [curcumin, diferuloylmethane], in the experiment on IL-6, the IL-6 production result is “inhibited the production of IL-6”. Moreover, the “percentage of cells in the S phase” value with U266 cells [1] (from 22% without treatment) turned out to be 9%. Also, in the experiment with U266 cells [1] (from 52% without treatment), the “percentage of cells in the G1 phase” value amounted to 70%. Also, the cells killed result in the experiment with U266 cells [2] is given as “approximately 35%”. Moreover, the “constitutive NF-κB activation (nuclear localization)” value with NF-κB is “downregulated NF-κB”. Besides, the “constitutive STAT3 activation (nuclear localization)” value in the experiment on STAT3 is recorded as “downregulated this transcripion factor”.

The values are drawn from patent US7196105B2, “Treatment of human multiple myeloma by curcumin” (Research Development Foundation, priority 2002, dated 2007).
